Reference: ChEMBL document CHEMBL1201862, “PubChem BioAssay data set” (2004)
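In this assay, cells in 96-well plates receive the compound at five concentrations for 48 hours. Endpoints are linearly interpolated between the surrounding concentrations. Abbreviation: GI50, concentration required for 50% inhibition of growth.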 Active and inactive are the calls of the source. Cut-off read from the data, not from the text of the source: active = GI50 up to about 1.1 µM and inactive = higher.

What was measured:
Assay in all cases: growth of human tumour cells (NCI), 48 h
786-0 = system: 786-0
ACHN = system: ACHN
CAKI-1 = system: CAKI-1
COLO 205 = system: COLO 205
EKVX = system: EKVX
HL-60 = system: HL-60
HOP-92 = system: HOP-92
Hs-578T = system: Hs-578T
LOX IMVI = system: LOX IMVI
MOLT-4 = system: MOLT-4
NCI-H226 = system: NCI-H226
OVCAR-8 = system: OVCAR-8
RXF 393 = system: RXF 393
SF-295 = system: SF-295
SK-MEL-28 = system: SK-MEL-28
SK-MEL-5 = system: SK-MEL-5
SN12C = system: SN12C
SR = system: SR
SW-620 = system: SW-620
UACC-62 = system: UACC-62

Measured: GI50

CC(=O)O[C@H]1[C@@H](N2CCCCC2)C[C@H]2[C@@H]3CC=C4C[C@@H](N5CCCC5)CC[C@]4(C)[C@H]3CC[C@@]21C
inactive: 786-0 36.7 µM | ACHN > 100 µM | CAKI-1 > 100 µM | COLO 205 > 100 µM | EKVX > 100 µM | HL-60 24.9 µM | HOP-92 91.8 µM | Hs-578T > 100 µM | LOX IMVI 35.6 µM | MOLT-4 44.5 µM | NCI-H226 > 100 µM | OVCAR-8 > 100 µM | RXF 393 32.7 µM | SF-295 67.5 µM | SK-MEL-28 22 µM | SK-MEL-5 32.4 µM | SN12C > 100 µM | SR 2.74 µM | SW-620 > 100 µM | UACC-62 > 100 µM

COc1cnc2cc(C(=O)O)c3c([N+](=O)[O-])cccc3c2c1
inactive: 786-0 > 100 µM | ACHN > 100 µM | CAKI-1 > 100 µM | COLO 205 > 100 µM | EKVX > 100 µM | HL-60 > 100 µM | HOP-92 > 100 µM | Hs-578T > 100 µM | LOX IMVI > 100 µM | MOLT-4 > 100 µM | NCI-H226 > 100 µM | OVCAR-8 > 100 µM | RXF 393 > 100 µM | SF-295 > 100 µM | SK-MEL-28 > 100 µM | SK-MEL-5 > 100 µM | SN12C > 100 µM | SR > 100 µM | SW-620 > 100 µM | UACC-62 > 100 µM

Cc1cc(=O)n2nc(CSc3nnc(Sc4cc(O)ccc4O)s3)sc2n1
inactive: 786-0 41.3 µM | ACHN > 100 µM | CAKI-1 > 100 µM | COLO 205 68.5 µM | EKVX 99.3 µM | HL-60 26.4 µM | HOP-92 35.4 µM | Hs-578T 44.9 µM | LOX IMVI 21.7 µM | MOLT-4 24.4 µM | NCI-H226 > 100 µM | OVCAR-8 67.1 µM | RXF 393 51.6 µM | SF-295 > 100 µM | SK-MEL-28 54.1 µM | SK-MEL-5 64.1 µM | SN12C 58.1 µM | SR 28.3 µM | SW-620 22.8 µM | UACC-62 50 µM

C/N=C(N)/N=C(\N)Nc1cc2ccccc2c2ccccc12
inactive: 786-0 12.4 µM | ACHN 13.5 µM | CAKI-1 14.5 µM | COLO 205 13.7 µM | EKVX 16.3 µM | HL-60 4.06 µM | HOP-92 14.9 µM | Hs-578T 16.9 µM | LOX IMVI 13 µM | MOLT-4 10.4 µM | NCI-H226 20.7 µM | OVCAR-8 16.8 µM | RXF 393 14.9 µM | SF-295 17.1 µM | SK-MEL-28 17.8 µM | SK-MEL-5 16.5 µM | SN12C 12.5 µM | SR 13.8 µM | SW-620 16.6 µM | UACC-62 14.9 µM

O[C@@H]1C=C[C@]23CCN(Cc4cc5c(cc42)OCO5)[C@@H]3C1
inactive: 786-0 56.8 µM | ACHN 35.2 µM | CAKI-1 26.8 µM | COLO 205 44.8 µM | EKVX 87.1 µM | HL-60 > 100 µM | HOP-92 65.6 µM | Hs-578T > 100 µM | LOX IMVI 48.4 µM | MOLT-4 61.1 µM | NCI-H226 > 100 µM | OVCAR-8 54.1 µM | RXF 393 20.8 µM | SF-295 40 µM | SK-MEL-28 > 100 µM | SK-MEL-5 > 100 µM | SN12C 32.7 µM | SR 67.8 µM | SW-620 49 µM | UACC-62 > 100 µM
